Test results from publication PMC7804859, “A metabolically stable apelin-17 analog decreases AVP-induced antidiuresis and improves hyponatremia” (Nature Communications, 2021).
“And” between values parts separate entries of the source, which are not always exact repeats. Identical values can stand only once.

Key:
[1] = system: alert Sprague-Dawley rats; experiment: Mean arterial blood pressure in alert rats; assay type: in vivo, rat; set-up: SBP_Baseline / SBP_3h / SBP_24h: unit not given here
Description: 291 Blood pressure measurements
292 Rats were implanted with a right femoral artery catheter which was passed beneath the skin
293 under isoflurane anesthesia. Blood pressure (BP) was recorded in male alert Sprague Dawley
294 rats after a recovery period of at least 24 hours, with a PowerLab/Labchart system
295 (ADInstruments, Dunedin, New Zealand) connected to the arterial catheter via a pressure
296 transducer. Mean arterial BP (MABP) was calculated from the arterial pressure signal as
297 previously described 7. The compound was administered s.c. after baseline BP recording for at
298 least 30 minutes. BP was then measured at 3 and 24 hours after administration. At the end of
299 the experiment, animals were killed with a lethal dose of pentobarbital (Dolethal ®, 150

[2] = Plasma LIT01-196 levels by mass spectrometry after i.v. injection in mice; assay type: in vivo, mouse; conditions: for Apelin (plasma LIT01-196 concentration by mass spectrometry): 300 nmol/kg IV
Source text: The detection limit was 6
The within- and between-assay
229 coefficients of variation were 3 and 5%, respectively6. The recovery (mean±SEM) was
233 the elimination rate constant.
236 animals per time point).
242 and 0.05% formic acid; solvent B: acetonitrile). Plasma samples were processed before RP-
244 acetonitrile for protein precipitation and compound extraction. Samples were vortex-stirred
248 standard and compared to standard curves. Standard curves were obtained by analyzing
250 using the same procedure. Pharmacokinetics parameters were calculated using a one-
Peptide injection and blood sample collection were performed by […]

hyponatremic rats = experiment: Plasma AVP and apelin-IR levels in hyponatremic rats (RIA); assay type: in vivo, rat
Description: 187 Apelin radioimmunoassay
189 until use for apelin RIA.
The supernatants were collected and
The samples were dried and dissolved in
201 centrifuged (17000 x g, 4°C, 20 min). The supernatant (4 ml) was collected, and mixed with
The columns were then treated as described in
Samples (0.1ml) w ere mixed with 125I-
212 used this radioligand instead of [Glp65, Nle75, Tyr77] [125I]-apelin13 since the substitution of
214 derivatives as described previously by 3,4.
216 incubated for 10 min at room temperature.
This antiserum identified the apelin present in the
Most of the apelin in human plasma was
252 TechMedILL platfor m (Illkirch) reviewed and approved by the agriculture ministry regulating
256 Male Sprague-Dawley rats were killed by decapitation, and trunk blood was collected on ice
257 (into 50 µl of 0.3M EDTA (pH 7.4) per 1 ml of blood). Samples were centrifuged (2,600 x g,
258 4°C, 20 min), and the resulting plasma was split into 500 µl aliquots, to which we added 168
259 µl of 3N HCl before storage at -80°C. The AVP RIA was performed as previously described
260 5, using a specific AVP-[Arg8] antibody (final dilution, 1/4.5) and [125I]-(Tyr2Arg8)-AVP
261 (2200 Ci/mmol, Perkin-Elmer, Billerica, MA; 15000 dpm) as a tracer. […]

mpkCCD cells = experiment: dDAVP-induced cAMP production in mpkCCD cells; assay type: cell-based, mouse; conditions: 10 µmol/l compound, 10 nmol/l dDAVP, 60 min 37 °C
Description: 152 Supplementary Methods
154 We quantified cAMP production with the cAMP dynamic 2 assay kit (Cisbio Bioassays,
155 Codolet, France), which is based on homogeneous time-resolved fluorescence (HTRF)
156 technology, as previously described 1. For cells expressing the Apelin-R, 2000 CHO cells/well
157 stably expressing rat apelinR-EGFP (clone B70) were added to the 384-well plate and
158 stimulated with 5 µmol/l forskolin (FSK) and various concentrations (0.01 pmol/l to 100
For cells expressing the V2-R, HEK-
160 293T cells were transiently transfected with the human V2-R (cDNA Resource Center), after
161 48h, 4000 cells/well were added to white 384-well optiplates and stimulated either with 5
Cells were then lysed, and
165 cAMP levels were determined in accordance with the kit manufacturer’s instructions.
166 Stimulation was performed in stimulation buffer-IBMX (SBI) (Hank’s balanced salt solution
167 (HBSS-Life Technology), 5 mmol/l Hepes, 0.1% BSA stabilizer (Perkin Elmer), 1 mmol/l
168 isobutylmethylxanthine (IBMX, Sigma Aldrich, pH 7.4)). For cAMP assay with mpkCCD
169 cells, the cells were grown on 12 mm Transwell filters (0.4 μm pore size, Corning Costar,
170 Cambridge, MA) until they reach confluency (4-5 days). For forskolin experiments, culture
171 media was replaced with SBI in apical and basolateral compartments. After 30 min of […]

CSCC[C@H](NC(=O)[C@@H]1CCCN1C(=O)CNC(=O)[C@H](CCCCN)NC(=O)[C@H](Cc1c[nH]cn1)NC(=O)[C@H](CO)NC(=O)[C@H](CC(C)C)NC(=O)[C@H](CCCNC(=N)N)NC(=O)[C@@H]1CCCN1C(=O)[C@H](CCCNC(=N)N)NC(=O)[C@H](CCC(N)=O)NC(=O)[C@H](CCCNC(=N)N)NC(=O)[C@H](CCCNC(=N)N)NC(=O)[C@H](Cc1ccccc1)NC(=O)[C@H](CCCCN)NC(=O)CCC(F)(F)C(F)(F)C(F)(F)C(F)(F)C(F)(F)C(F)(F)C(F)(F)C(F)(F)F)C(=O)N1CCC[C@H]1C(=O)N[C@@H](Cc1ccccc1)C(=O)O [LIT01-196]
SBP_3h ([1]; 900 nmol/kg SC, 3h, individual animals (Fig. S5A source data)): 100.529 and 94.7199 and 92.7855 and 89.7756 and 91.9306 | SBP_24h ([1]; 900 nmol/kg SC, 24h, individual animals (Fig. S5A source data)): 122.566 and 101.322 and 101.468 and 97.9055 | SBP_Baseline ([1]; 900 nmol/kg SC, baseline, individual animals (Fig. S5A source data)): 113.98 and 106.154 and 101.631 and 106.857 and 101.074 | MABP 24 h after administration ([1]; 900 nmol/kg s.c., alert rats): did not significantly differ from baseline | mean arterial blood pressure (MABP) 3 h after administration ([1]; 900 nmol/kg s.c., alert rats, n = 5, baseline 106 ± 2, p = 0.063): 94 ± 2 mmHg | Apelin (plasma LIT01-196 concentration by mass spectrometry) ([2]; temps.min 5, single animals): 774.627 and 804.594 and 622.343 | Apelin (plasma LIT01-196 concentration by mass spectrometry) ([2]; temps.min 15, single animals): 548.524 and 627.056 and 820.177 | Apelin (plasma LIT01-196 concentration by mass spectrometry) ([2]; temps.min 28, single animals): 266.538 and 138.326 and 371.965 | Apelin (plasma LIT01-196 concentration by mass spectrometry) ([2]; temps.min 60, single animals): 64.4359 and 230.369 and 324.336 | half-life ([2]; CD-1, mouse, in vivo, iv, 300 nmol/kg i.v., UHPLC-MS/MS, one-compartment model, 3 animals per time point): 29 min | plasma AVP levels versus AVP-treated rats receiving saline (hyponatremic rats; 900 nmol/kg s.c., 3 h): No significant difference | increase in plasma apelin-IR/AVP ratio relative to saline (hyponatremic rats; 900 nmol/kg s.c., 3 h, hyponatremic rats): 518% | plasma apelin-IR material levels, higher than AVP + saline (hyponatremic rats; 900 nmol/kg s.c., 3 h, n = 5): 372% | Plasma AVP (hyponatremic rats; AVP 30 ng/h rats, LIT01-196 900 nmol/kg SC, individual animals (Fig. 6A source data)): 26.2192 and 47.0941 and 28.2654 and 46.4247 and 26.8381 | Plasma apelin (hyponatremic rats; AVP 30 ng/h rats, LIT01-196 900 nmol/kg SC, individual animals (Fig. 6B source data)): 2578 and 2160 and 2508 and 1740 and 2599 | Apelin to AVP ratio (hyponatremic rats; AVP 30 ng/h rats, LIT01-196 900 nmol/kg SC, individual animals (Fig. 6C source data)): 98.309 and 45.8759 and 88.7295 and 37.4882 and 96.8538 | inhibition of dDAVP-induced cAMP production (mpkCCD cells): 79%
